What all share (assay type): cell-based, human
Experiment [1] deals with whole blood. The experiment can be described thus: Whole blood IFN-γ response to antigen with or without dextrose, 24-well plate, Quantiferon-TB ELISA (Example 2).
Experiment [2] concerns whole blood. As to the kind of experiment: Whole blood IFN-γ response to HuPPD or Mitogen, 24-well plate versus blood collection tube, Quantiferon-TB ELISA (Example 4).
The subject of experiment [3] is whole blood. Conditions: blood collection tube, dextrose added; one line per subject; * OD outside the range of the plate reader.
In experiment [4] the test system is whole blood.

Values joined by “and” are separate entries in the source; they are usually repeats but may differ in a detail not shown here. Identical values can stand only once.

From patent publication US7608392B2, “Diagnostic assay for measuring a cell mediated immune response” (priority 2002, dated 2009) come the findings set out here.

Turning to phytohemagglutinin [Mitogen], the “Concentration of IFN-γ found for each plasma sample, +Dextrose” value in the experiment with whole blood [1] (24-well plate, 20 hours 37° C., dextrose 2 mg/mL, one line per donor) was 122.76 IU/mL and 25.71 IU/mL. Moreover, the “Concentration of IFN-γ found for each plasma sample, −Dextrose” value with whole blood [1] (24-well plate, 20 hours 37° C., without dextrose, one line per donor) was 108.72 IU/mL and 28.67 IU/mL. Moreover, the “Fold increase with dextrose” value in the experiment with whole blood [1] (IFN-γ +Dextrose 2 mg/mL / −Dextrose, one line per donor) was 0.90 and 1.13. Moreover, in the experiment on whole blood [1] (dextrose 2 mg/mL, 24-well plate), the “Change in IFN-γ detected with addition of dextrose (in words)” value is “slight increase in IFN-γ detected for one of the donors and a slight decrease for the other”. Also, the “Amount of IFN-γ detected, Mitogen 24-well” value with whole blood [2] (after subtraction of saline negative control, 24-well plate, one line per donor) was 83.34 IU/mL and 1.13 IU/mL and 10.04 IU/mL and 6.85 IU/mL and 12.32 IU/mL and 8.77 IU/mL and 76.98 IU/mL and 65.02 IU/mL and 8.14 IU/mL and −0.56 IU/mL and 21.79 IU/mL and 30.58 IU/mL and 28.26 IU/mL and 8.10 IU/mL and 2.75 IU/mL and 6.14 IU/mL and 14.05 IU/mL and 2.46 IU/mL and 11.80 IU/mL and 7.69 IU/mL. Further, the “Amount of IFN-γ detected, Mitogen Tube” value in the experiment on whole blood [2] (after subtraction of saline negative control, blood collection tube, mean of duplicate tubes, one line per donor) is 61.94 IU/mL and 13.13 IU/mL and 7.95 IU/mL and 3.45 IU/mL and 13.32 IU/mL and 5.29 IU/mL and 68.58 IU/mL and 47.53 IU/mL and 5.80 IU/mL and −0.79 IU/mL and 16.34 IU/mL and 22.52 IU/mL and 19.16 IU/mL and 5.71 IU/mL and 1.88 IU/mL and 3.55 IU/mL and 9.07 IU/mL and 7.91 IU/mL and 8.73 IU/mL and 3.52 IU/mL. Also, the “Mean fold increase, Mitogen Tube/24-well” value with whole blood [2] (mean over donors) amounted to 0.73. Also, in the experiment on whole blood [2] (ratio of IFN-γ, one line per donor), the “Mitogen Tube/24-well” value was 0.74 (3×) and 0.79 and 0.05 and 1.08 and 0.60 and 0.89 and 0.73 and 0.71 (2×) and 0.75 and 0.68 and 0.58 and 0.65 and 3.22 and 0.46. For the same substance, in the experiment with whole blood [3], the “IFN-γ, In-Tube Method, Mitogen” value is 52.50 IU/mL and 4.15 IU/mL and 17.377* IU/mL and 5.57 IU/mL and 2.31 IU/mL and 11.77 IU/mL and 21.063* IU/mL and 4.02 IU/mL and 11.23 IU/mL and 17.05* IU/mL.

As for tetanus toxoid, the “Mean fold increase, TetTox Tube/24 well” value in the experiment on whole blood [4] was 4.5 and 4.51.
